# Measured values: PubChem BioAssay (NCI)
#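 All cell lines were grown in 96-well plates and treated with compound for 48 hours. At the TGI there is no net growth.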
# Assays:
# Assay in all cases: DTP human tumour cell line panel, 48 h
# DLD-1 colon = tested on: DLD-1 colon
# MALME-3M melanoma = tested on: MALME-3M melanoma
# HT29 colon = tested on: HT29 colon
# 786-0 renal = tested on: 786-0 renal
# UACC-257 melanoma = tested on: UACC-257 melanoma
# NCI-H522 lung = tested on: NCI-H522 lung
# OVCAR-4 ovarian = tested on: OVCAR-4 ovarian
# CCRF-CEM leukemia = tested on: CCRF-CEM leukemia
# HCC-2998 colon = tested on: HCC-2998 colon
# SNB-19 CNS = tested on: SNB-19 CNS
# OVCAR-5 ovarian = tested on: OVCAR-5 ovarian
# SW-620 colon = tested on: SW-620 colon
# KM20L2 colon = tested on: KM20L2 colon
# HCT-116 colon = tested on: HCT-116 colon
# LOX IMVI melanoma = tested on: LOX IMVI melanoma
# SK-OV-3 ovarian = tested on: SK-OV-3 ovarian
# NCI-H23 lung = tested on: NCI-H23 lung
# IGROV1 ovarian = tested on: IGROV1 ovarian
# DMS 114 small cell lung = tested on: DMS 114 small cell lung
# SF-295 CNS = tested on: SF-295 CNS
# SK-MEL-28 melanoma = tested on: SK-MEL-28 melanoma
# SK-MEL-2 melanoma = tested on: SK-MEL-2 melanoma
# NCI-H226 lung = tested on: NCI-H226 lung
# M19-MEL melanoma = tested on: M19-MEL melanoma
# COLO 205 colon = tested on: COLO 205 colon
# NCI-H460 lung = tested on: NCI-H460 lung
# HCT-15 colon = tested on: HCT-15 colon
# M14 melanoma = tested on: M14 melanoma
# TK-10 renal = tested on: TK-10 renal
# SF-268 CNS = tested on: SF-268 CNS
# MOLT-4 leukemia = tested on: MOLT-4 leukemia
# HOP-92 NSCLC = tested on: HOP-92 NSCLC
# HOP-18 NSCLC = tested on: HOP-18 NSCLC
# SK-MEL-5 melanoma = tested on: SK-MEL-5 melanoma
# UO-31 renal = tested on: UO-31 renal
# K-562 leukemia = tested on: K-562 leukemia
# LXFL 529 NSCLC = tested on: LXFL 529 NSCLC
# OVCAR-3 ovarian = tested on: OVCAR-3 ovarian
# RXF 393 renal = tested on: RXF 393 renal
# CAKI-1 renal = tested on: CAKI-1 renal
# A549 NSCLC = tested on: A549 NSCLC
# EKVX NSCLC = tested on: EKVX NSCLC
# ACHN renal = tested on: ACHN renal
# DMS 273 small cell lung = tested on: DMS 273 small cell lung
# SR leukemia = tested on: SR leukemia
# A498 renal = tested on: A498 renal
# KM12 colon = tested on: KM12 colon
# SNB-75 CNS = tested on: SNB-75 CNS
# SF-539 CNS = tested on: SF-539 CNS
# UACC-62 melanoma = tested on: UACC-62 melanoma
# SN12C renal = tested on: SN12C renal
# RPMI-8226 leukemia = tested on: RPMI-8226 leukemia
# HOP-62 NSCLC = tested on: HOP-62 NSCLC
# SNB-78 CNS = tested on: SNB-78 CNS
# OVCAR-8 ovarian = tested on: OVCAR-8 ovarian
# HL-60(TB) leukemia = tested on: HL-60(TB) leukemia
# U251 CNS = tested on: U251 CNS
smiles,measurement,setting,value
O=C(Nc1ccccc1[N+](=O)[O-])/C(=N/Nc1cccc(Cl)c1)c1c(O)c2ccccc2oc1=O,TGI,DLD-1 colon,> 100 µM
same,TGI,MALME-3M melanoma,> 100 µM
same,TGI,HT29 colon,> 100 µM
same,TGI,786-0 renal,> 100 µM
same,TGI,UACC-257 melanoma,> 100 µM
same,TGI,NCI-H522 lung,> 100 µM
same,TGI,OVCAR-4 ovarian,> 100 µM
same,TGI,CCRF-CEM leukemia,87.5 µM
same,TGI,HCC-2998 colon,> 100 µM
same,TGI,SNB-19 CNS,> 100 µM
same,TGI,OVCAR-5 ovarian,> 100 µM
same,TGI,SW-620 colon,> 100 µM
same,TGI,KM20L2 colon,> 100 µM
same,TGI,HCT-116 colon,53.6 µM
same,TGI,LOX IMVI melanoma,> 100 µM
same,TGI,SK-OV-3 ovarian,> 100 µM
same,TGI,NCI-H23 lung,> 100 µM
same,TGI,IGROV1 ovarian,> 100 µM
same,TGI,DMS 114 small cell lung,53.8 µM
same,TGI,SF-295 CNS,> 100 µM
same,TGI,SK-MEL-28 melanoma,> 100 µM
same,TGI,SK-MEL-2 melanoma,> 100 µM
same,TGI,NCI-H226 lung,> 100 µM
same,TGI,M19-MEL melanoma,> 100 µM
same,TGI,COLO 205 colon,47.6 µM
same,TGI,NCI-H460 lung,> 100 µM
same,TGI,HCT-15 colon,> 100 µM
same,TGI,M14 melanoma,> 100 µM
same,TGI,TK-10 renal,> 100 µM
same,TGI,SF-268 CNS,> 100 µM
same,TGI,MOLT-4 leukemia,> 100 µM
same,TGI,HOP-92 NSCLC,96.5 µM
same,TGI,HOP-18 NSCLC,> 100 µM
same,TGI,SK-MEL-5 melanoma,> 100 µM
same,TGI,UO-31 renal,> 100 µM
same,TGI,K-562 leukemia,> 100 µM
same,TGI,LXFL 529 NSCLC,> 100 µM
same,TGI,OVCAR-3 ovarian,> 100 µM
same,TGI,RXF 393 renal,> 100 µM
same,TGI,CAKI-1 renal,> 100 µM
same,TGI,A549 NSCLC,> 100 µM
same,TGI,EKVX NSCLC,> 100 µM
same,TGI,ACHN renal,> 100 µM
same,TGI,DMS 273 small cell lung,> 100 µM
same,TGI,SR leukemia,2.67 µM
same,TGI,A498 renal,> 100 µM
same,TGI,KM12 colon,> 100 µM
same,TGI,SNB-75 CNS,> 100 µM
same,TGI,SF-539 CNS,> 100 µM
same,TGI,UACC-62 melanoma,> 100 µM
CCC(=O)OC1CCn2c1nc1c2C(=O)C(C)=C(NC(C)=O)C1=O (centres undefined),TGI,DLD-1 colon,3.96 µM
same,TGI,MALME-3M melanoma,2.96 µM
same,TGI,HT29 colon,3.59 µM
same,TGI,786-0 renal,11.9 µM
same,TGI,UACC-257 melanoma,3.15 µM
same,TGI,NCI-H522 lung,2.94 µM
same,TGI,SN12C renal,3.19 µM
same,TGI,OVCAR-4 ovarian,1.67 µM
same,TGI,CCRF-CEM leukemia,3.89 µM
same,TGI,HCC-2998 colon,5.13 µM
same,TGI,SNB-19 CNS,6.75 µM
same,TGI,OVCAR-5 ovarian,3.39 µM
same,TGI,SW-620 colon,2.93 µM
same,TGI,HCT-116 colon,3.21 µM
same,TGI,LOX IMVI melanoma,2.7 µM
same,TGI,SK-OV-3 ovarian,11.4 µM
same,TGI,RPMI-8226 leukemia,5.66 µM
same,TGI,NCI-H23 lung,3.49 µM
same,TGI,IGROV1 ovarian,3.98 µM
same,TGI,HOP-62 NSCLC,24.1 µM
same,TGI,DMS 114 small cell lung,1.62 µM
same,TGI,SF-295 CNS,4.53 µM
same,TGI,SK-MEL-28 melanoma,3.76 µM
same,TGI,SK-MEL-2 melanoma,3.41 µM
same,TGI,NCI-H226 lung,3.27 µM
same,TGI,M19-MEL melanoma,3.31 µM
same,TGI,COLO 205 colon,11.6 µM
same,TGI,SNB-78 CNS,4.35 µM
same,TGI,NCI-H460 lung,14.1 µM
same,TGI,OVCAR-8 ovarian,2.09 µM
same,TGI,M14 melanoma,3.32 µM
same,TGI,TK-10 renal,17 µM
same,TGI,SF-268 CNS,3.2 µM
same,TGI,HOP-92 NSCLC,3.5 µM
same,TGI,SK-MEL-5 melanoma,3.27 µM
same,TGI,UO-31 renal,4.73 µM
same,TGI,K-562 leukemia,4.43 µM
same,TGI,HL-60(TB) leukemia,3.89 µM
same,TGI,LXFL 529 NSCLC,2.72 µM
same,TGI,OVCAR-3 ovarian,0.572 µM
same,TGI,RXF 393 renal,3.11 µM
same,TGI,CAKI-1 renal,3.61 µM
same,TGI,U251 CNS,3.84 µM
same,TGI,A549 NSCLC,3.62 µM
same,TGI,EKVX NSCLC,3.53 µM
same,TGI,ACHN renal,11.7 µM
same,TGI,DMS 273 small cell lung,3.37 µM
same,TGI,SR leukemia,5.66 µM
same,TGI,A498 renal,32.5 µM
same,TGI,KM12 colon,4.03 µM
same,TGI,SNB-75 CNS,10.3 µM
same,TGI,SF-539 CNS,3.21 µM
same,TGI,UACC-62 melanoma,3.43 µM
C#CCN(N=O)C(=O)NC(CCCCNC(=O)OCc1ccccc1)C(=O)OCc1ccccc1 (centres undefined),TGI,DLD-1 colon,42.7 µM
same,TGI,MALME-3M melanoma,65.1 µM
same,TGI,HT29 colon,46.9 µM
same,TGI,786-0 renal,32.5 µM
same,TGI,UACC-257 melanoma,79.5 µM
same,TGI,NCI-H522 lung,31.7 µM
same,TGI,SN12C renal,97.9 µM
same,TGI,OVCAR-4 ovarian,72.8 µM
same,TGI,CCRF-CEM leukemia,41.8 µM
same,TGI,HCC-2998 colon,> 100 µM
same,TGI,SNB-19 CNS,> 100 µM
same,TGI,OVCAR-5 ovarian,84 µM
same,TGI,SW-620 colon,41 µM
same,TGI,KM20L2 colon,> 100 µM
same,TGI,HCT-116 colon,> 100 µM
same,TGI,LOX IMVI melanoma,59.1 µM
same,TGI,SK-OV-3 ovarian,> 100 µM
same,TGI,RPMI-8226 leukemia,45.9 µM
same,TGI,NCI-H23 lung,> 100 µM
same,TGI,IGROV1 ovarian,> 100 µM
same,TGI,HOP-62 NSCLC,> 100 µM
same,TGI,DMS 114 small cell lung,44 µM
same,TGI,SF-295 CNS,> 100 µM
same,TGI,SK-MEL-28 melanoma,77.6 µM
same,TGI,SK-MEL-2 melanoma,> 100 µM
same,TGI,M19-MEL melanoma,> 100 µM
same,TGI,COLO 205 colon,96.6 µM
same,TGI,SNB-78 CNS,> 100 µM
same,TGI,NCI-H460 lung,> 100 µM
same,TGI,OVCAR-8 ovarian,38.9 µM
same,TGI,HCT-15 colon,47.2 µM
same,TGI,M14 melanoma,56.6 µM
same,TGI,TK-10 renal,86 µM
same,TGI,SF-268 CNS,> 100 µM
same,TGI,MOLT-4 leukemia,41.5 µM
same,TGI,HOP-92 NSCLC,32.6 µM
same,TGI,HOP-18 NSCLC,44.9 µM
same,TGI,UO-31 renal,87 µM
same,TGI,K-562 leukemia,50.5 µM
same,TGI,HL-60(TB) leukemia,37.6 µM
same,TGI,LXFL 529 NSCLC,31.7 µM
same,TGI,OVCAR-3 ovarian,> 100 µM
same,TGI,RXF 393 renal,> 100 µM
same,TGI,U251 CNS,76.8 µM
same,TGI,A549 NSCLC,> 100 µM
same,TGI,EKVX NSCLC,55.3 µM
same,TGI,ACHN renal,> 100 µM
same,TGI,DMS 273 small cell lung,> 100 µM
same,TGI,A498 renal,> 100 µM
same,TGI,KM12 colon,> 100 µM
same,TGI,SNB-75 CNS,97.4 µM
same,TGI,UACC-62 melanoma,> 100 µM
CC(=O)OCCOCn1c2ccccc2c2c3c(c4c5ccccc5n(COCCOC(C)=O)c4c21)C(=O)N(Cc1ccccc1)C3=O,TGI,DLD-1 colon,> 100 µM
same,TGI,MALME-3M melanoma,> 100 µM
same,TGI,HT29 colon,> 100 µM
same,TGI,786-0 renal,> 100 µM
same,TGI,UACC-257 melanoma,> 100 µM
same,TGI,SN12C renal,> 100 µM
same,TGI,OVCAR-4 ovarian,> 100 µM
same,TGI,CCRF-CEM leukemia,> 100 µM
same,TGI,HCC-2998 colon,> 100 µM
same,TGI,SNB-19 CNS,> 100 µM
same,TGI,OVCAR-5 ovarian,> 100 µM
same,TGI,SW-620 colon,> 100 µM
same,TGI,KM20L2 colon,> 100 µM
same,TGI,HCT-116 colon,> 100 µM
same,TGI,LOX IMVI melanoma,> 100 µM
same,TGI,SK-OV-3 ovarian,> 100 µM
same,TGI,RPMI-8226 leukemia,> 100 µM
same,TGI,NCI-H23 lung,> 100 µM
same,TGI,IGROV1 ovarian,> 100 µM
same,TGI,HOP-62 NSCLC,> 100 µM
same,TGI,SK-MEL-28 melanoma,> 100 µM
same,TGI,SK-MEL-2 melanoma,> 100 µM
same,TGI,NCI-H226 lung,> 100 µM
same,TGI,M19-MEL melanoma,> 100 µM
same,TGI,COLO 205 colon,> 100 µM
same,TGI,SNB-78 CNS,> 100 µM
same,TGI,NCI-H460 lung,> 100 µM
same,TGI,OVCAR-8 ovarian,> 100 µM
same,TGI,HCT-15 colon,> 100 µM
same,TGI,M14 melanoma,> 100 µM
same,TGI,TK-10 renal,> 100 µM
same,TGI,SF-268 CNS,> 100 µM
same,TGI,MOLT-4 leukemia,> 100 µM
same,TGI,HOP-92 NSCLC,> 100 µM
same,TGI,SK-MEL-5 melanoma,> 100 µM
same,TGI,UO-31 renal,> 100 µM
same,TGI,K-562 leukemia,> 100 µM
same,TGI,HL-60(TB) leukemia,> 100 µM
same,TGI,LXFL 529 NSCLC,> 100 µM
same,TGI,RXF 393 renal,> 100 µM
same,TGI,U251 CNS,> 100 µM
same,TGI,A549 NSCLC,> 100 µM
same,TGI,EKVX NSCLC,> 100 µM
same,TGI,ACHN renal,> 100 µM
same,TGI,DMS 273 small cell lung,> 100 µM
same,TGI,A498 renal,> 100 µM
same,TGI,SNB-75 CNS,> 100 µM
same,TGI,SF-539 CNS,> 100 µM
same,TGI,UACC-62 melanoma,> 100 µM
